US10329295B2, “Pyrrolotriazine inhibitors of IRAK4 activity” (MERCK SHARP & DOHME CORP., priority 2015, dated 2019)
Where a name gives a salt, the structure may show the parent alone.

Molecular target: GST tagged IRAK4 (Homo sapiens (Human), UniProt Q9NWZ3)
Assay: IRAK4 Kinase Assay (IMAP fluorescence polarization)
Format: biochemical
Conditions: 0.5 nM GST tagged IRAK4, 100 μM ATP, 30 minutes at 25° C.
Experimental: The kinase activity of IRAK4 is determined by its ability to catalyze the phosphorylation of a fluorescent polypeptide substrate. The extent of phosphorylation is measured using the IMAP technology (Molecular Devices) where the phosphorylated fluorescent substrate binds to the large M(III)-based nanoparticles which reduces the rotational speed of the substrate and thus increases its fluorescent polarization (FP).
20 μL reaction mixture contains 10 mM TriHCl, pH 7.2, 0.5 nM GST tagged IRAK4 (SignalChem), 100 nM fluorescent peptide substrate (RP7030, Molecular Devices), 100 μM ATP, 1 mM DDT, 1 mM MgCl2, and 0.01% Tween 20. The reaction is initiated by the addition of ATP. After incubation for 30 minutes at 25° C., 60 μL of Progressive IMAP Reagent (Molecular Devices) is added to stop the reaction. Change in RP7030's FP is determined by a FP reader (Analyst HT, LJL BioSystems).

Sequence of GST tagged IRAK4 (Q9NWZ3 whole entry): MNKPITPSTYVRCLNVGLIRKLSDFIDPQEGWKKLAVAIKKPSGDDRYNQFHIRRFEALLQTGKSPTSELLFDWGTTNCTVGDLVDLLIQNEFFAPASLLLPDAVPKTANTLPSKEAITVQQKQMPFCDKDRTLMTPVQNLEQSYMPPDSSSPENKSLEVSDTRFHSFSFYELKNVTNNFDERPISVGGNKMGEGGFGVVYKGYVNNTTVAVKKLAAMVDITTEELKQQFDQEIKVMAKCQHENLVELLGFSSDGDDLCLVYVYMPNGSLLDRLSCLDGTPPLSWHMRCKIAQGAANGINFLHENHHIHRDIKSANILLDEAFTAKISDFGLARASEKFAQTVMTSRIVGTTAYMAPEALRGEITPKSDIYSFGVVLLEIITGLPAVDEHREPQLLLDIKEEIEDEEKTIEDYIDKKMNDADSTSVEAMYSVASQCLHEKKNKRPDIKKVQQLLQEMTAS

Structure (SMILES)	IC50 [µM]
Cn1cc(NC(=O)c2ccc3cnc(N4C[C@H]5CNC[C@@H]4C5)nn23)c(C#N)n1 (single isomer, unassigned) [Example 134, N-(3-cyano-1-methyl-1H-pyrazol-4-yl)-2-[(1R,5S)- or (1S,5R)-3,6-diazabicyclo[3.2.1]oct-6-yl]pyrrolo[2,1-f][1,2,4]triazine-7-carboxamide]	0.174
Cn1cc(NC(=O)c2ccc3cnc(N4C[C@@H]5CC[C@H]4CN5)nn23)c(C#N)n1 (single isomer, unassigned) [Example 46, N-(3-cyano-1-methyl-1H-pyrazol-4-yl)-2-[(1S,4S)- or (1R,4R)-2,5-diazabicyclo[2.2.2]oct-2-yl]pyrrolo[2,1-f][1,2,4]triazine-7-carboxamide trifluoroacetate]	0.072
Cn1cc(NC(=O)c2ccc3cnc(N4C[C@@H](N)C[C@@H](F)C4)nn23)c(C(F)(F)F)n1 [Example 148, 2-[(3S,5R)-3-amino-5-fluoropiperidin-1-yl]-N-[1-methyl-3-(trifluoromethyl)-1H-pyrazol-4-yl]pyrrolo[2,1-f][1,2,4]triazine-7-carboxamide]	0.02
Cn1cc(NC(=O)c2ccc3cnc(N[C@@H]4CCCC[C@@H]4N)nn23)cn1 [Example 169, 2-{[(1R,2S)-2-aminocyclohexyl]amino}-N-(1-methyl-1H-pyrazol-4-yl)pyrrolo[2,1-f][1,2,4]triazine-7-carboxamide trifluoroacetate]	0.035
N#Cc1sccc1NC(=O)c1ccc2cnc(N3CCC[C@H](N)C3)nn12 [Example 152, 2-[(3S)-3-aminopiperidin-1-yl]-N-(2-cyanothiophen-3-yl)pyrrolo[2,1-f][1,2,4]triazine-7-carboxamide trifluoroacetate]	0.007
O=C(Nc1cscc1Br)c1ccc2cnc(N3CC4CCC3CN4)nn12 (stereo not shown) [Example 24, N-(4-bromothiophen-3-yl)-2-(2,5-diazabicyclo[2.2.2]oct-2-yl)pyrrolo[2,1-f][1,2,4]triazine-7-carboxamide trifluoroacetate]	0.68
Cn1cc(NC(=O)c2ccc3cnc(N[C@@H]4CCCC[C@@H]4O)nn23)c(C#N)n1 [Example 122, N-(3-cyano-1-methyl-1H-pyrazol-4-yl)-2-{[(1R,2S)-2-hydroxycyclohexyl]amino}-pyrrolo[2,1-f][1,2,4]triazine-7-carboxamide trifluoroacetate]	0.02
COCCn1cc(NC(=O)c2ccc3cnc(N[C@@H]4CCCC[C@@H]4N)nn23)cn1 [Example 168, 2-{[(1R,2S)-2-aminocyclohexyl]amino}-N-[1-(2-methoxyethyl)-1H-pyrazol-4-yl]pyrrolo[2,1-f][1,2,4]triazine-7-carboxamide trifluoroacetate]	0.301
O=C(Nc1ccccc1Cl)c1ccc2cnc(N3CCCNCC3)nn12 [Example 39, N-(2-chlorophenyl)-2-(1,4-diazepan-1-yl)pyrrolo[2,1-f][1,2,4]triazine-7-carboxamide trifluoroacetate]	0.228
N[C@@H]1[C@H](Nc2ncc3ccc(C(=O)Nc4cscc4C(F)F)n3n2)CCCC1(F)F [Example 93, 2-{[(1R,2R)-2-amino-3,3-difluorocyclohexyl]amino}-N-[4-(difluoromethyl)thiophen-3-yl]pyrrolo[2,1-f][1,2,4]triazine-7-carboxamide trifluoroacetate]	0.298

Further lines, results first:

IC50 [µM]	Structure (SMILES)
6.57	O=C(Nc1ccccc1C(F)F)c1ccc2cnc(N3CCCNCC3)nn12 [Example 57, 2-(1,4-diazepan-1-yl)-N-[2-(difluoromethyl)phenyl]-pyrrolo[2,1-f][1,2,4]triazine-7-carboxamide trifluoroacetate]
0.004	Cn1cc(NC(=O)c2ccc3cnc(N[C@@H]4CCCC[C@@H]4O)nn23)c(C(F)F)n1 [Example 17, N-[3-(difluoromethyl)-1-methyl-1H-pyrazol-4-yl]-2-{[(1R,2S)-2-hydroxycyclohexyl]amino}-pyrrolo[2,1-f][1,2,4]triazine-7-carboxamide trifluoroacetate]
0.001	Cn1cc(NC(=O)c2ccc3cnc(N4CCC[C@H](N)C4)nn23)c(C#N)n1 [Example 123, 2-[(3S)-3-aminopiperidin-1-yl]-N-(3-cyano-1-methyl-1H-pyrazol-4-yl)pyrrolo[2,1-f][1,2,4]triazine-7-carboxamide trifluoroacetate]
0.006	Cn1cc(NC(=O)c2ccc3cnc(N4CCCNCC4)nn23)c(C(F)F)n1 [Example 15, 2-(1,4-diazepan-1-yl)-N-[3-(difluoromethyl)-1-methyl-1H-pyrazol-4-yl]pyrrolo[2,1-f][1,2,4]triazine-7-carboxamide trifluoroacetate]
0.073	Cn1cc(NC(=O)c2ccc3cnc(N4CCNCC4)nn23)c(C(F)(F)F)n1 [Example 4, N-[1-methyl-3-(trifluoromethyl)-1H-pyrazol-4-yl]-2-piperazin-1-ylpyrrolo[2,1-f][1,2,4]triazine-7-carboxamide trifluoroacetate]
0.001	Cn1cc(NC(=O)c2ccc3cnc(NC4CCCCNC4)nn23)c(C(F)F)n1 (stereo not shown) [Example 19, 2-(azepan-3-ylamino)-N-[3-(difluoromethyl)-1-methyl-1H-pyrazol-4-yl]pyrrolo[2,1-f][1,2,4]triazine-7-carboxamide trifluoroacetate]
0.01	Cn1cc(NC(=O)c2ccc3cnc(N4C[C@@H]5CN[C@@H](C5)C4)nn23)c(C(F)F)n1 (single isomer, unassigned) [Example 103, 2-[(1S,5S)- or (1R,5R)-3,6-diazabicyclo[3.2.1]oct-3-yl]-N-[3-(difluoromethyl)-1-methyl-1H-pyrazol-4-yl]pyrrolo[2,1-f][1,2,4]triazine-7-carboxamide]
0.004	N#Cc1cscc1NC(=O)c1ccc2cnc(N[C@@H]3CCCC[C@@H]3N)nn12 [Example 13, 2-{[(1R,2S)-2-aminocyclohexyl]amino}-N-(4-cyanothiophen-3-yl)pyrrolo[2,1-f][1,2,4]triazine-7-carboxamide trifluoroacetate]
0.0008	Cn1cc(NC(=O)c2ccc3cnc(N[C@@H]4CCCNC4)nn23)c(C#N)n1 [Example 124, N-(3-cyano-1-methyl-1H-pyrazol-4-yl)-2-[(3R)-piperidin-3-ylamino]pyrrolo[2,1-f][1,2,4]triazine-7-carboxamide trifluoroacetate]
0.0008	Cn1cc(NC(=O)c2ccc3cnc(N4C[C@@H](N)C[C@H](F)C4)nn23)c(C(F)F)n1 [Example 157, 2-[(3S,5S)-3-amino-5-fluoropiperidin-1-yl]-N-[3-(difluoromethyl)-1-methyl-1H-pyrazol-4-yl]pyrrolo[2,1-f][1,2,4]triazine-7-carboxamide trifluoroacetate]
0.002	Cn1cc(NC(=O)c2ccc3cnc(N4CCNCC5(CC5)C4)nn23)c(C(F)F)n1 [Example 20, 2-(5,8-diazaspiro[2.6]non-5-yl)-N-[3-(difluoromethyl)-1-methyl-1H-pyrazol-4-yl]pyrrolo[2,1-f][1,2,4]triazine-7-carboxamide trifluoroacetate]
0.015	Cn1cc(NC(=O)c2ccc3cnc(N4C[C@H]5CNC[C@@H]4C5)nn23)c(C(F)F)n1 (single isomer, unassigned) [Example 120, 2-[(1S,5R)- or (1R,5S)-3,6-diazabicyclo[3.2.1]oct-6-yl]-N-[3-(difluoromethyl)-1-methyl-1H-pyrazol-4-yl]pyrrolo[2,1-f][1,2,4]triazine-7-carboxamide]
